In patent US10301630B2, “Methods and compositions for unsilencing imprinted genes” (The University of North Carolina at Chapel Hill, priority 2010, dated 2019):
Read-outs that look alike come from different tables or passages of the source.

Test system: paternal Ube3a-YFP allele
Assay: High-content imaging of paternal Ube3a-YFP unsilencing in primary cortical neurons
Assay type: cell-based, mouse
Conditions: 72 h; for EC50: unsilencing paternal Ube3a-YFP; for Potency EC20 / EC20 / Potency EC20 (nM): 1 nM to 30 μM; for EC20: read-out: Potency EC20; for unsilencing of paternal Ube3a-YFP in dose-response experiments: cultured Ube3a m+/pYFP neurons
Method: In all screening assays, primary cortical neurons from Ube3a-YFP mice are isolated from embryonic day 15.5 animals, and the genotype of animals is determined to identify mice that encode the Ube3a-YFP transgene on the paternal allele. Freshly isolated cortical neurons are seeded into 384 well plates and cultured for 7 days. At day in vitro seven, screening is performed using multiple chemical libraries and compound concentration of 10 μM in 0.2% DMSO vehicle. After 72 h of drug exposure (run in quadruplicate wells), neurons are fixed with 4% para formaldehyde and processed for immunofluorescence using an anti-GFP-Alexa 488 conjugated antibody to enhance the signal of Ube3a-YFP in neurons. For image analyses, individual wells of immunofluorescence-processed plates are imaged fro DAPI and GFP fluorescence using the BD-Pathway 855 high-content imaging microscope. Ube3a-YFP fluorescence intensities in individual neurons are determined in drug-treated wells and normalized to 0.2% DMSO-treated (i.e., vehicle control) wells using custom written macros and algorithms using NIH Image J and Arrayscan Cell Profiler software programs. These image analyses enable masking of nuclei in individual neurons and determination of Ube3a-YFP fluorescence intensity in the nuclei of individual neurons.
For these studies, DIV 7 primary neurons encoding paternal Ube3a-YFP are dose treated with hit compounds across seven orders of magnitude in full and half log molar concentrations (3 pM to 30 μM). Ube3a-YFP fluorescence intensities in living neurons are determined again by high-content imaging microscopy after 72 h treatments. The dose response results are analyzed by least squares sigmoidal dose-response curve fitting models using Graphpad Prism 5.0 (Graphpad Software, Inc.). The calculated EC50 values (potencies) and Y value top plateau (estimated efficacies or Emax) enable comparative analyses of the relative potency and efficacy of the identified compounds.
Primary cortical neurons were isolated from E13.5-16.5 Ube3a-YFP mice. Screening was performed in quadruplicate at DIV7 using multiple chemical libraries and a compound concentration of 10 μM in 0.2% DMSO vehicle. After 72 h of drug exposure, neurons were fixed with 4% paraformaldehyde in PBS for 35 min, permeabilized with 0.3% Triton X-100 in PBS on ice for 30 min, and blocked by 5% goat serum with 0.1% Triton X-100 in PBS at room temperature for 1 hr. Cells were incubated with a rabbit polyclonal antibody to GFP (1:1000, Novus Biologicals, NB600-308) at room temperature for 1 hr and then incubated with Alexa Fluor 488 goat antibody to rabbit IgG (1:200, Invitrogen, A11008) and DAPI (1:10,000, Invitrogen, D-1306) at room temperature for 30 min. Individual wells of immunofluorescence-processed plates were imaged for DAPI or Alexa 488 fluorescence using the BD Pathway 855 high-content imaging microscope with a 488 excitation/515 long pass filter. Antibody-enhanced UBE3A-YFP fluorescence intensities were determined from individual neurons in drug-treated wells and normalized to neurons in wells treated with 0.2% DMSO (vehicle control). Analyses were performed with custom macros and algorithms using NIH Image J and Arrayscan Cell Profiler software programs (Thermo Scientific/Cellomics). These image analyses enabled masking of nuclei in individual neurons and determination of UBE3A-YFP fluorescence intensities in the nuclei of individual neurons (FIG. 16).
DIV7 primary neurons from Ube3a^m+/pYFP mice were dose-treated for 72 h with topoisomerase I and II inhibitors in ten point dose-responses in full and half log molar concentrations (1 nM to 30 μM). Neurons were fixed, processed for immunofluorescence, and UBE3A-YFP fluorescence intensities were again determined by high-content imaging microscopy.

[1] = Table 1, Ube3a-YFP fluorescence intensity above control cells (0.2% DMSO treated), cortical neurons
[2] = Table 1, cortical neurons, read-out: EC50
[3] = Table 3, unsilencing the paternal allele of Ube3a-YFP in cultured neurons
[4] = Mus musculus, Cortical neurone, Table 1, Ube3a-YFP fluorescence intensity above control cells (0.2% DMSO treated), cortical neurons, read-out: Efficacy Emax (fold over control)
[5] = Mus musculus, Cortical neurone, Table 1, cortical neurons, read-out: EC50
[6] = Mus musculus, Neuron, Table 3, unsilencing the paternal allele of Ube3a-YFP in cultured neurons
[7] = Mus musculus, Neuron, Table 3, unsilencing the paternal allele of Ube3a-YFP in cultured neurons, read-out: Efficacy Emax (fold over vehicle)

Row | EC50 [5] [nM] | Compound | Efficacy Emax (fold over control) [1] [fold over control] | EC50 [2] [nM] | Efficacy Emax (fold over vehicle) [3] | Potency EC20 [3] [nM] | maximal fold induction [4] | EC20 [6] [nM] | maximal fold induction [7] | further results
1 |  | CCc1c2c(nc3ccc(O)cc13)-c1cc3c(c(=O)n1C2)COC(=O)[C@]3(O)CC [7-Ethyl-10-Hydroxy-CPT] | 2.00 ± 0.09 | 33 ± 1.3 | 1.99 ± 0.06 fold over vehicle | 11 ± 3.2 |  |  |  | 
2 |  | CCc1c2c(nc3ccccc13)-c1cc3c(c(=O)n1C2)COC(=O)[C@]3(O)CC [7-Ethyl-CPT, 7-Ethyl-Camptothecin] | 1.68 ± 0.05 | 49 ± 1.3 | 1.70 ± 0.04 fold over vehicle | 7.2 ± 2.3 |  |  |  | 
3 |  | CC[C@@]1(O)C(=O)OCc2c1cc1n(c2=O)Cc2cc3cc(O)ccc3nc2-1 [10-Hydroxy-CPT] | 1.68 ± 0.06 | 40 ± 1.4 | 1.82 ± 0.08 fold over vehicle | 14 ± 5.7 |  |  |  | 
4 | 28 ± 10 | COc1cc(NS(C)(=O)=O)ccc1Nc1c2ccccc2nc2ccccc12 [Amsacrine] |  |  |  |  | 1.65 ± 0.05 | 27 ± 5.2 | 1.74 ± 0.06 | 
5 | 18 ± 1.1 | CC[C@@]1(O)C(=O)OCc2c1cc1n(c2=O)Cc2c-1nc1ccccc1c2CCNC(C)C [Belotecan (CKD602), Belotecan] |  |  |  |  | 1.85 ± 0.04 | 19 ± 4.4 | 1.88 ± 0.05 | 
6 |  | C[C@@H](CN1CC(=O)NC(=O)C1)N1CC(=O)NC(=O)C1 [Dexrazoxane (ICRF-187), Dexrazoxane] |  |  |  |  |  | 20500 ± 1450 | 1.82 ± 0.05 | unsilencing of paternal Ube3a-YFP in dose-response experiments: unsilenced the paternal Ube3a-YFP allele
7 |  | COc1cc([C@@H]2c3cc4c(cc3[C@@H](O[C@@H]3O[C@@H]5CO[C@@H](C)O[C@H]5[C@H](O)[C@H]3O)[C@H]3COC(=O)[C@H]23)OCO4)cc(OC)c1O [Etoposide] |  |  |  |  |  | 1600 ± 980 | 1.68 ± 0.04 | unsilencing of paternal Ube3a-YFP in dose-response experiments: unsilenced the paternal Ube3a-YFP allele
8 |  | CC[C@@]1(O)C(=O)NCc2c1cc1n(c2=O)Cc2cc3ccccc3nc2-1 [Lactam E ring-CPT (inactive), Lactam E ring-CPT] |  |  | inactive |  |  |  |  | Potency EC20 (nM) [3]: inactive; unsilencing of paternal Ube3a-YFP in dose-response experiments: failed to unsilence the paternal Ube3a-YFP allele
9 |  | COc1cc2c3c(n(CCCNCCO)c(=O)c2cc1OC)-c1cc2c(cc1C3=O)OCO2 [NSC706744] | 1.76 ± 0.03 | 6.2 ± 2 | 1.84 ± 0.07 fold over vehicle | 11 ± 3.2 |  |  |  | 
10 |  | COc1cc2c3c(n(CCCN4CCOCC4)c(=O)c2cc1OC)-c1cc2c(cc1C3=O)OCO2 [NSC724998] | 1.65 ± 0.03 | 12 ± 4 | 1.69 ± 0.03 fold over vehicle | 14 ± 2.2 |  |  |  | 
11 |  | COc1cc2c3c(n(CCCn4ccnc4)c(=O)c2cc1OC)-c1cc2c(cc1C3=O)OCO2 [NSC725776] | 1.82 ± 0.05 | 9.2 ± 2 | 1.76 ± 0.03 fold over vehicle | 10 ± 1.6 |  |  |  | 
12 | 43 ± 9.1 | CC[C@@]1(O)C(=O)OCc2c1cc1n(c2=O)Cc2cc3c([N+](=O)[O-])cccc3nc2-1 [Rubitecan (9-Nitro-CPT), Rubitecan] |  |  |  |  | 2.07 ± 0.08 | 62 ± 18 | 2.09 ± 0.09 | 
13 | 2640 ± 95 | CC[C@@]1(O)C(=O)OCc2c1cc1n(c2=O)Cc2c-1nc1ccc(O)cc1c2[Si](C)(C)C(C)(C)C [Silatecan (DB67), Silatecan] |  |  |  |  | 1.71 ± 0.06 | 2240 ± 171 | 1.65 ± 0.05 | 
14 |  | ICRF-193 |  |  |  |  |  |  |  | EC50 (Table 1, cortical neurons): 131 ± 13 nM; Potency EC20 (nM) [3]: 205 ± 70^ nM; unsilencing of paternal Ube3a-YFP in dose-response experiments: unsilenced the paternal Ube3a-YFP allele

Row | Compound | EC50 [5] [nM] | Efficacy Emax (fold over control) [1] [fold over control] | EC50 [2] [nM] | Efficacy Emax (fold over vehicle) [3] | Potency EC20 [3] [nM] | maximal fold induction [4] | EC20 [6] [nM] | maximal fold induction [7] | further results
15 | CC[C@@]1(O)C(=O)OCc2c1cc1n(c2=O)Cc2cc3ccccc3nc2-1 [Camptothecin (CPT), Camptothecin] | 32 ± 1.3 |  |  |  |  | 1.66 ± 0.06 | 21 ± 3.8 | 2.11 ± 0.05 | 
